Results as given in patent US9802942B2, “Substituted 4-methyl-pyrrolo[1,2-A]pyrimidine-8-carboxamide compounds and uses thereof for modulating glucocerebrosidase activity” (Northwestern University, priority 2015, dated 2017).
“And” between values parts separate entries of the source, which are not always exact repeats. Equal entries are not always repeated. One block for each molecule: values may come before it.

Key:
[1] = target: T1, GCase (Homo sapiens, UniProt P04062); experiment: Binding affinity test by FP assay (competition with probe 3); settings: in words; 19.5 nM to 10 μM
T1 construct: purchased Shire Human Genetic Therapies, Inc. Vpriv
T1 sequence (P04062 40-536): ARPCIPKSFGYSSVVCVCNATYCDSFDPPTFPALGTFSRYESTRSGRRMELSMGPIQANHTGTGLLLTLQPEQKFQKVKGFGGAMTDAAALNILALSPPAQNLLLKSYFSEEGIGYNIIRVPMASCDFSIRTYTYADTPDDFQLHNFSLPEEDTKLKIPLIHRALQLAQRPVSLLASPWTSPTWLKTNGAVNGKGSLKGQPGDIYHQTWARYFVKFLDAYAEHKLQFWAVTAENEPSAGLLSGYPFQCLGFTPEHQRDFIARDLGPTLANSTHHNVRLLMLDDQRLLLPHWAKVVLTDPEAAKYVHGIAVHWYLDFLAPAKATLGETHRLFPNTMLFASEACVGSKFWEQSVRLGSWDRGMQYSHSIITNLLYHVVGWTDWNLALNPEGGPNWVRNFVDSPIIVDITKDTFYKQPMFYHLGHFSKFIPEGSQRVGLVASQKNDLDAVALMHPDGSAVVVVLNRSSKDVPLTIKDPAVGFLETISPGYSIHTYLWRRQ
Method: The enzyme in GCase enzyme activity buffer (25 μL/well) was added to a 384-well black plate. The fluorescent probe 3 (25 nL/well, 50 nM final concentration) was transferred to a 384-well black plate using a Labcyte Echo 550 Liquid Handler system. Compounds in DMSO stock solution (50 nL) were transferred to the plate. The plate was shaken at room temperature in dark for 20 min. The final concentration was 19.5 nM to […], 10 concentrations, 2 times dilution. The fluorescence polarization was measured in a Molecular Devices Analyst GT with Ex=535 nm and Em=580 nm, G Factor=1.05.
The enzyme in GCase enzyme activity buffer (25 μL/well) was added to a 384-wells black plate, The fluorescent probe 3 (25 nL/well, 50 nM final concentration) was transferred to a 384-wells black plate by using Labcyte Echo 550 Liquid Handler system. Compounds 1, and 2 in DMSO stock solution (50 nL) (the final titration was 19.5 nM to 10 μM, 10 concentrations) were transferred to the plate. The plate was shook at room temperature in dark for 20 min. The fluorescence polarization was measured in Molecular Devices Analyst GT with Ex=535 nm and Em=580 nm, G Factor=1.05.

[2] = target: T2, glucocerebrosidase (GCase), recombinant wt. enzyme velaglucerase alfa (Homo sapiens, UniProt P04062); experiment: Glucocerebrosidase activity assay with blue substrate (4MU-Glc); assay type: biochemical; settings: 4MU-Glc substrate enzyme activity assay
T2 construct: purchased Shire Human Genetic Therapies, Inc. Vpriv
T2 sequence (P04062 40-536): T1 sequence (P04062 40-536)
Method: (§1) The compounds in DMSO solution 0.5 μL/well were transferred to a black 96-well plate (the final titration was 24 nM to 50 μM, 12 concentrations, 2 times dilution). 33.5 μL enzyme solution (7.5 nM final concentration) was transferred to the wells. After 5 min of incubation at room temperature, the enzyme reaction was initiated by the addition of 33 μL/well blue substrate or 66.5 μL/well red substrate. Final concentrations of the blue substrate (4MU-Glc) and red substrate (Res-Glc) were 1.5 mM and 30 μM, respectively. The red substrate reaction was measured in the Biotek Synergy H1 multi-mode plate reader with Ex=573 nm and Em=610 nm at 37° C. every 20 sec for 30 min. The blue substrate reaction was terminated by the addition of 33 μL/well stop solution (1 M NaOH and 1 M glycine mixture, pH 10) after 30 min of incubation at 37° C. The fluorescence was then measured in the plate reader at Ex=365 nm and Em=440 nm.
The recombinant wt. enzyme velaglucerase alfa (Vpriv®, Shire Human Genetic Therapies, Inc.) was obtained from residual solution after clinical infusions. The GCase activity assay buffer was composed of 50 mM citric acid, 176 mM K2HPO4, and 0.01% Tween-20 at pH 5.9. A solution of 1 M sodium hydroxide and 1 M glycine was used as the stop solution for the 4MU-β-glc substrate assay.
The compounds in DMSO solution 0.5 μL/well was transferred to a black 96-well plate (the final titration was 24 nM to 50 μM, 12 concentrations). 33.5 μL enzyme solution (7.5 nM final concentration) was transferred to the wells. After 5 min of incubation at room temperature, the enzyme reaction was initiated by the addition of 33 μL/well 4MU-Glc substrate or 66.5 μL/well red substrate. Final concentrations of the 4MU-Glc substrate and Res-Glc substrate were 1.5 mM and 30 μM, respectively. The red substrate reaction was measured in the Biotek Synergy H1 multi-mode plate reader with Ex=573 nm and Em=610 nm at 37° C. in every 20 seconds for 30 min. The 4MU-Glc substrate reaction was terminated by the addition of 33 μL/well stop solution (1 M NaOH and 1 M glycine mixture, pH 10) after 30 min of incubation at 37° C. The fluorescence was then measured in the plate reader with Ex=365 nm and Em=440 nm.

[3] = target: T2, glucocerebrosidase (GCase), recombinant wt. enzyme velaglucerase alfa; experiment: Glucocerebrosidase activity assay with red substrate (Res-β-glc); assay type: biochemical; settings: at 50 μM
Method: as §1, with “nm. […]” for “nm.”
The compounds in DMSO solution 0.5 μL/well was transferred to a black 96-well plate (the final titration was 24 nM to 50 μM, 12 concentrations). […] The red substrate reaction was measured in the Biotek Synergy H1 multi-mode plate reader with Ex=573 nm and Em=610 nm at 37° C. in every 20 seconds for 30 min. […] The fluorescence was then measured in the plate reader with Ex=365 nm and Em=440 nm.

[4] = target: T1, GCase; experiment: Fluorescence polarization (FP) assay, probe titrated with enzyme; assay type: binding; settings: probe 50 nM, enzyme 5 nM to 10 μM
Method: The fluorescent probe 3 (25 nL/well, 50 nM final concentration) was transferred to a 384-well black plate using a Labcyte Echo 550 Liquid Handler system. The 25 μL/well enzyme dilutions with GCase enzyme activity buffer were added to the plate, which was shaken at room temperature in dark for 20 min. The final titration was 5 nM to 10 μM, 10 concentrations, 2 times dilution. The fluorescence polarization was measured in Molecular Devices Analyst GT with Ex=535 nm and Em=580 nm, G Factor=1.05.
The fluorescent probe 3 (25 nL/well, 50 nM final concentration) was transferred to a 384-wells black plate by using Labcyte Echo 550 Liquid Handler system. The 25 μL/well enzyme dilutions in GCase enzyme activity buffer (the final titration was 5 nM to 10 μM, 10 concentrations, 2 times dilution) were added to the plate, and shook at room temperature in dark for 20 min. The fluorescence polarization was measured in Molecular Devices Analyst GT with Ex=535 nm and Em=580 nm, G Factor=1.05.

[5] = Enzyme stability assay in pH 4.7 buffer; assay type: physicochemical; settings: citrate/phosphate buffer pH 4.7, day 10
Text: To test whether probe 4 changed the enzyme stability of GCase, we used two environments for GCase activity stability assay (Tekoah, Tzaban et al. 2013). The first one was citrate/phosphorylate buffer, which was at pH 4.7. In this condition, the wt. GCase only had about 15% activity left on day 4 (FIGS. 6A and 6B), which is similar to the previous research (Tekoah, Tzaban et al. 2013). An interesting finding was that even on day 10, activated GCase still had more than 20% activity left. […] One possible reason for the higher enzyme activity in low pH buffer was that activated GCase was stabilized by the covalent compound, and was more difficult to unfold.

[6] = tested on: U937 macrophage cells; experiment: U937 macrophage uptake assay; assay type: cell-based, human
Method: Human monocyte cell line U937 was optimally differentiated into macrophages by the addition of 75 ng/ml PMA (Brumshtein, Salinas et al. 2010) to the monocyte culture for 3 days (in 75 cm^2 flasks). Macrophages were enriched by adhesion to the culture plate and identified by morphology and receptor staining.
The assay was carried out according to the reported method (Tekoah, Tzaban et al. 2013) with slight modification. The enzyme was treated with compound 4 or DMSO at pH 7.2 for 60 min as described above, then dialyzed with PBS. U937 cells, after differentiation (˜1.6*10^6 cells), were incubated with 60 μg/ml of the activated enzymes and wt. enzyme in F12K medium for 10 min at 5% CO2, 37° C. incubator. The cells were then washed twice with ice cold PBS enriched with Mannan (1 mg/ml). To further ensure release of any proteins bound non-specifically to the membrane half of the cells were washed with ice cold glycine buffer: (0.8% NaCl, 0.038% KCl, 0.01% MgCl2, 0.01% CaCl2, 0.7% glycine [pH 3]) followed by two additional cold PBS washes. The other half of the wells were used as controls for measuring total enzymatic activity (bound and internalized enzyme). The cells were lysed by adding β-glucocerebrosidase activity buffer (60 mM phosphate-citrate buffer; 0.15% Triton X-100; 0.125% sodium taurocholate, pH 5.5), followed by pipetting and one freeze/thaw cycle. The obtained lysates were subjected to determination of enzymatic activity using the colorimetric method detailed above. The total enzymatic activity was normalized to total soluble proteins as measured by Bradford assay. The effective uptake was calculated as the percentage of activity within the cells out of the total enzymatic activity of the controls.

[7] = target: T3, recombinant wild type GCase (Homo sapiens, UniProt P04062); experiment: Covalent binding assay: activity of GCase activated by probe 4; assay type: biochemical; settings: natural substrate assay; covalent activation
T3 construct: purchased Shire Human Genetic Therapies, Inc. Vpriv
T3 sequence (P04062 40-536): T1 sequence (P04062 40-536)
Method: To the recombinant wild type enzyme (22 μM, 95 μL, 1 equiv) in 0.1 M phosphate buffer (pH 7.2) was added 2,5-dioxopyrrolidin-1-yl 3-(2-(2-(4-(4-(2,4-dimethylpyrrolo[1,2-a]pyrimidine-8-carboxamido)phenyl)-1H-1,2,3-triazol-1-yl)ethoxy)ethoxy)propanoate (4) in DMSO (0.89 mM, 5 μL, 2 equiv) in one portion, and was vortexed for 5 sec immediately. At indicated time points, the reaction solution (2 μL) was sampled and diluted (1:3125 dilution) into the assay buffer (50 mM citric acid, 176 mM K2HPO4, and 0.01% Tween-20 at pH 5.9). After 2 h the reaction solution was dialyzed three times with 0.1 M phosphate buffer (pH 7.2). The enzyme was adjusted to the same concentration and sampled for activity. The dilution solutions were assayed with three substrates, resorufin substrate, 4-MU substrate, and natural substrate using the method in Example 5 and Example 6 without adding compounds.
The probe 4 was subjected to the covalent binding assay against GCase. The reaction conditions, including the buffer pH value, the concentration of the protein and probe, and the reaction temperature were carefully adjusted to achieve the maximum activation. With the optimized reaction condition, the enzyme activity was activated in a time-dependent manner (FIG. 5). The enzyme could be activated by probe 4 with around 22 and 28 folds activity comparing to the wt. GCase in the 4MU-Glc substrate (FIG. 5A) and red substrate (FIG. 5B) enzyme activity assay respectively.

activity in FP competition with probe 3 [1]: much higher activity
maximum activity / activation activity [2]: around 14 folds
AC50 ([2]; read-out: AC50): 6310 nM
activation of Res-β-glc substrate hydrolysis [3]: 10 folds
Molecule: Cc1cc(C)n2ccc(C(=O)Nc3ccc(-c4cn(CCOCCOCCN)nn4)cc3)c2n1 [No. 3, N-(4-(1-(2-(2-(2-aminoethoxy)ethoxy)ethyl)-1H-1,2,3-triazol-4-yl)phenyl)-2,4-dimethylpyrrolo[1,2-a]pyrimidine-8-carboxamide]

Kd [4]: 710 nM and ~710 nM
Molecule: Cc1cc(C)n2ccc(C(=O)Nc3ccc(-c4cn(CCOCCOCCNC(=O)c5ccc(-c6c7ccc(=[N+](C)C)cc-7oc7cc(N(C)C)ccc67)c(C(=O)[O-])c5)nn4)cc3)c2n1 [No. 4, 2-(3,6-Bis(dimethylamino)xanthylium-9-yl)-5-((2-(2-(2-(4-(4-(2,4-dimethylpyrrolo[1,2-a]pyrimidine-8-carboxamido)phenyl)-1H-1,2,3-triazol-1-yl)ethoxy)ethoxy)ethyl)carbamoyl)benzoate]

activity improvement [7]: 16 folds
B1: activated GCase: recombinant wild type GCase covalent modified by probe 4 (NHS ester) on lysine residues, 1-3 ligands (conjugate, UniProt P04062 40-536, looked up)
Lysosomal acid …: T1 sequence (P04062 40-536)
modifications: covalent probe 4 on lysines
notes: recombinant wild type GCase covalent modified by probe 4 (NHS ester) on lysine residues, 1-3 ligands
activity left [5]: more than 20%
activity compared to endogenous GC ([6]; PMA-induced U937 cells, 4MU-β-glc substrate): more than 25 folds
protein uptake level ([6]; Western blot, activated GCase vs wt. GCase, in words): equal
